{"source": "ChEMBL document CHEMBL1201862", "about": "“PubChem BioAssay data set” (2004)", "key": {"Major prion protein": {"target": "Major prion protein (Homo sapiens, UniProt P04156)", "type": "functional, cell-based"}, "[1]": {"test": "A cytotoxicity screen of small molecule inhibitors of the PhoP region in Salmonella typhi identified in the primary screen. [Related pubchem assays: 1850, 1864, 1985 ]", "type": "functional"}, "[2]": {"target": "NAD-dependent protein deacylase sirtuin-5, mitochondrial (Homo sapiens, UniProt Q9NXA8)", "test": "sirtuin-5 deacylation blockers, concentration series – biochemical, fluorescence imaging, cherry-pick, set 5, dose response (AID 720591);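 note: desuccinylation of succinyl peptide AMC substrate read as fluorescence after trypsin release; potency of inhibitors that lower fluorescence and may act on trypsin instead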"}, "[3]": {"target": "T1, Short transient receptor potential channel 4 (Mus musculus, UniProt Q9QUQ5)", "T1 sequence (Q9QUQ5 whole entry)": "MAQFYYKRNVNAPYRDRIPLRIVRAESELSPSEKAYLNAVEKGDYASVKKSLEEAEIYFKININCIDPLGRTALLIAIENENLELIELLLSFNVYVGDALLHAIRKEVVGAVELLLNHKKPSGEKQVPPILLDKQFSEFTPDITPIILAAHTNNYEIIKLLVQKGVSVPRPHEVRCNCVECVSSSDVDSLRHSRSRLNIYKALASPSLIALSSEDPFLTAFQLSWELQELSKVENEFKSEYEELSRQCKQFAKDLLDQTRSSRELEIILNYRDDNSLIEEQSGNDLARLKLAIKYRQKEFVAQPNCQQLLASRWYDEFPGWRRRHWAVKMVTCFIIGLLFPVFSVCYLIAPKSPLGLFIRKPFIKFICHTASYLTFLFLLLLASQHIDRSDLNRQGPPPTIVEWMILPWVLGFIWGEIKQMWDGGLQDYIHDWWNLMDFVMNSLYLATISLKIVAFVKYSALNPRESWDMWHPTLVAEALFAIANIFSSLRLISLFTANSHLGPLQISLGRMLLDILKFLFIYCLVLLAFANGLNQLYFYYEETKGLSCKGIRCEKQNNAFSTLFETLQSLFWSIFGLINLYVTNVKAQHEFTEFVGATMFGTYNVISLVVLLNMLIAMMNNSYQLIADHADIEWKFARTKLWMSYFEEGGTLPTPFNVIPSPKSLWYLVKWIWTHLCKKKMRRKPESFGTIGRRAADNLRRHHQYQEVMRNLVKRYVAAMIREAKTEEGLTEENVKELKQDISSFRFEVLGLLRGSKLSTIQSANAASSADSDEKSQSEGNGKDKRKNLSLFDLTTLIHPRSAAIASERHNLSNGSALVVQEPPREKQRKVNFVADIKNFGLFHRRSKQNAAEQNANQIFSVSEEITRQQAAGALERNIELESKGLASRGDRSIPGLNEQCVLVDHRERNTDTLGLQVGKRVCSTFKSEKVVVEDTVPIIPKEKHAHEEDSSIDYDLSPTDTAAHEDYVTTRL", "test": "calcium entry via TRPC4 opening agents – cell-based, HEK293 TRPC4/mu-opioid, Fluo-4 calcium, dose response (AID 434937)", "type": "functional"}, "[4]": {"target": "Delta-type opioid receptor (Homo sapiens, UniProt P41143)", "test": "Counterscreen for agonists of heterodimerization of the mu 1 (OPRM1) and delta 1 (OPRD1) opioid receptors: Luminescence-based cell-based high throughput dose response assay to identify agonists of OPRD1 homodimerization. [Related pubchem assays (depositor defined):AID504326, AID504355, AID504692, AID504904, AID504905]", "type": "functional"}, "Mu-type opioid receptor": {"target": "Mu-type opioid receptor (Homo sapiens, UniProt P35372)", "test": "Counterscreen for agonists of heterodimerization of the mu 1 (OPRM1) and delta 1 (OPRD1) opioid receptors: Luminescence-based cell-based high throughput dose response assay to identify agonists of OPRM1 homodimerization.", "type": "functional"}, "[5]": {"target": "5-hydroxytryptamine receptor 5A (Homo sapiens, UniProt P47898)", "test": "Counterscreen for agonists of OPRM1-OPRD1 heterodimerization: luminescence-based cell-based high throughput dose response assay to identify agonists of 5-hydroxytryptamine (serotonin) 5A receptor (HTR5A). [Related pubchem assays (depositor defined):AID504326, AID504355, AID504692, AID504904, AID504905]", "type": "functional"}, "[6]": {"target": "T2, Endoribonuclease toxin MazF (Escherichia coli K-12, UniProt P0AE70)", "T2 sequence (P0AE70 whole entry)": "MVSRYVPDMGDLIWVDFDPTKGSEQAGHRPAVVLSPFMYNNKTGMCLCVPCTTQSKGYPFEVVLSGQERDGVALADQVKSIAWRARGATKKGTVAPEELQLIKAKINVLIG", "test": "activation of MazEF endoribonuclease cleavage – biochemical, fluorescence, single-stranded RNA substrate, uHTS hits, dose response (AID 588481)", "type": "functional"}, "[7]": {"target": "T3, Calpain-2 catalytic subunit (Sus scrofa, UniProt P43367)", "T3 sequence (P43367 whole entry)": "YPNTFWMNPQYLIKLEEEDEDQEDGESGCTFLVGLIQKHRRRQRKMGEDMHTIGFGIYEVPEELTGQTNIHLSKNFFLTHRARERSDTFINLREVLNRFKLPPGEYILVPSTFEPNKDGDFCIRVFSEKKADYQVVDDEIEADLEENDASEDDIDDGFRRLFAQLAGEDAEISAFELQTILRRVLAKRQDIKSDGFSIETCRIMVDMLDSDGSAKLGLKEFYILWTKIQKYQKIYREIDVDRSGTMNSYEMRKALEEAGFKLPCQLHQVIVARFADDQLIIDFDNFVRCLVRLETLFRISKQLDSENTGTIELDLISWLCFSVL", "test": "m-calpain protease blockers, concentration series – biochemical, fluorogenic peptide substrate, dose response (AID 1420)", "type": "functional"}, "Paired box protein Pax-8": {"target": "Paired box protein Pax-8 (Homo sapiens, UniProt Q06710)", "test": "PAX8 transcriptional activity inhibition in RMG-I – RMG-I cells, luciferase, cherry-pick, dose response (AID 687027);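 note: luciferase reporter driven by Pax8 target thyroperoxidase promoter measured by SteadyGlo luminescence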", "type": "functional, cell-based"}, "[8]": {"test": "OVCAR-3 cell viability loss – plate reader, dry powder samples, PAX8 inhibitor project, dose response (AID 743044)", "type": "functional, cell-based"}, "[9]": {"test": "OVCAR8 cell viability loss – plate reader, dry powder samples, PAX8 project, dose response (AID 743197)", "type": "functional, cell-based", "conditions": "OVCAR-8"}, "Beta-galactosidase": {"target": "Beta-galactosidase (Escherichia coli, UniProt Q8VNN2)", "test": "PubChem AID 485352", "type": "functional"}, "[10]": {"target": "T4, Type-1 angiotensin II receptor (Homo sapiens, UniProt P30556)", "T4 sequence (P30556 whole entry)": "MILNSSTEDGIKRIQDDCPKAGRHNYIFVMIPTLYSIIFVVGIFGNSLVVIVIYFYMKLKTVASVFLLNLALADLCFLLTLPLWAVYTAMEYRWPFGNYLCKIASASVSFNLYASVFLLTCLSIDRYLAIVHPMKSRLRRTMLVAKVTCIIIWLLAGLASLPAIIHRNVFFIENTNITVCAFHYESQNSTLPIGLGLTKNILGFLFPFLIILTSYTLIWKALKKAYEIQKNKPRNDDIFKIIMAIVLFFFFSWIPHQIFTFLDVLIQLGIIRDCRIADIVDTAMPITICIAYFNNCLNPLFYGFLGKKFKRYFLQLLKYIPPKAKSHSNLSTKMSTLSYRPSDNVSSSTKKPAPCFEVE", "test": "antagonism of angiotensin II type 1 receptor – cell-based, uHTS hits, selectivity assay for APJ receptor antagonist project, dose response (AID 463214);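 note: antagonist potency against angiotensin II stimulated AT1 response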", "type": "functional"}}, "note": "Active and inactive are the calls of the source."}
{"smiles": "CCOC(=O)CSc1ccc2ccccc2n1", "values": [{"measurement": "IC50", "setting": "Major prion protein", "value": "9.54 µM (active)"}, {"measurement": "IC50", "setting": "cells", "value": "> 138 µM (inactive)"}]}
{"smiles": "CC1=C(c2ccccc2)SC2=NCCN21", "values": [{"measurement": "EC50", "setting": "[1]", "value": "> 50 µM (active)"}, {"measurement": "AC50", "setting": "[2]", "value": "> 30 µM (inactive)"}]}
{"smiles": "CCCN(c1ccc(OCC)cc1)S(=O)(=O)c1ccc2c(c1)NC(=O)CO2", "values": [{"measurement": "IC50", "setting": "Major prion protein", "value": "13.1 µM (inactive)"}, {"measurement": "IC50", "setting": "cells", "value": "> 138 µM (inactive)"}]}
{"smiles": "Cc1cccc(OCCC(=O)NCC(c2ccccc2)N(C)C)c1", "note": "(stereo not drawn)", "values": [{"measurement": "EC50", "setting": "[3]", "value": "0.473 µM (active)"}, {"measurement": "EC50", "setting": "[4]", "value": "> 92.5 µM (inactive)"}, {"measurement": "EC50", "setting": "Mu-type opioid receptor", "value": "> 92.5 µM (inactive)"}, {"measurement": "EC50", "setting": "[5]", "value": "> 92.5 µM (inactive)"}]}
{"smiles": "CC1CC[C+]([N-]NS(=O)(=O)c2ccc([N+](=O)[O-])cc2)CC1", "values": [{"measurement": "EC50", "setting": "[6]", "value": "> 99 µM (inactive)"}]}
{"smiles": "Nc1nc(O)c2ncn([C@@H]3O[C@H](CNCc4ccc(OCCCN5CCOCC5)cc4)[C@@H](O)[C@H]3O)c2n1", "values": [{"measurement": "AC50", "setting": "[2]", "value": "> 30 µM (inactive)"}]}
{"smiles": "C=CCNC(=S)N/N=C/c1ccc(C(C)(C)C)cc1", "values": [{"measurement": "IC50", "setting": "[7]", "value": "10.9 µM (not active)"}]}
{"smiles": "Cc1cc(Br)c(NC(=O)COC(=O)CC2CC3CCC2C3)c(Br)c1", "note": "(stereo not drawn)", "values": [{"measurement": "AC50", "setting": "[2]", "value": "21.8 µM (active)"}]}
{"smiles": "COC(=O)[C@@]12C[C@@H](CC(=O)NCc3ccccc3)C(=O)N(Cc3ccccc3)C1=CCC(C)(C)C2", "values": [{"measurement": "AC50", "setting": "[2]", "value": "19.1 µM (active)"}]}
{"smiles": "C[C@@H]1CCCCO[C@@H](CN(C)S(=O)(=O)c2ccc(F)cc2)[C@H](C)CN([C@H](C)CO)C(=O)c2cc(NS(=O)(=O)c3ccc(Cl)cc3)ccc2O1", "values": [{"measurement": "AC50", "setting": "Paired box protein Pax-8", "value": "5.05 µM (active)"}, {"measurement": "AC50", "setting": "[8]", "value": "48.9 µM (active)"}, {"measurement": "AC50", "setting": "[9]", "value": "> 70 µM (inactive)"}]}
{"smiles": "C[C@H](CO)N1C[C@H](C)[C@H](CN(C)S(=O)(=O)c2ccc(Cl)cc2)OCCCC[C@H](C)Oc2ccc(NS(=O)(=O)c3ccc(Cl)cc3)cc2C1=O", "values": [{"measurement": "AC50", "setting": "Paired box protein Pax-8", "value": "5.86 µM (active)"}, {"measurement": "AC50", "setting": "[8]", "value": "34.3 µM (active)"}, {"measurement": "AC50", "setting": "[9]", "value": "58.9 µM (active)"}]}
{"smiles": "Cc1ccc(S(=O)(=O)N/N=C/c2ccc3nccnc3c2)cc1", "values": [{"measurement": "EC50", "setting": "Beta-galactosidase", "value": "> 40 µM (inactive)"}, {"measurement": "IC50", "setting": "[10]", "value": "> 40 µM (not active)"}]}
